“Also recorded” adds a separate entry of the source.
Assay: Vacuum drying of Form B
Format: physicochemical
Conditions: vacuum drying at room temperature
Experimental: A 1,4-dioxane solution of Form A was prepared by dissolving 20 mg in 0.2-1.0 mL of 1,4-dioxane until clear solution was obtained. Then, water was added while maintaining magnetic agitation until precipitate appeared. […] XRPD data was obtained on the wet-cake prior to drying.
Form B can only be prepared in a location where Form C has rigorously been excluded, otherwise the conditions to prepare Form B (described above) will instead produce Form C, the most thermodynamically stable form identified.

Compound: O=C(COc1ccc(Cl)cc1)NC12CC(c3nnc([C@H]4C[C@@H](OC(F)(F)F)C4)o3)(C1)C2 [Form B, 2-(4-chlorophenoxy)-N-[3-[5-[cis-3-(trifluoromethoxy)cyclobutyl]-1,3,4-oxadiazol-2-yl]-1-bicyclo[1.1.1]pentanyl]acetamide]
- form after vacuum drying: converted to Form A; also recorded: desolvates to Form A
